Results on one molecule are retold here after US8354539B2, “Indole derivatives as IKK2 inhibitors” (Glaxo Group Limited, priority 2009, dated 2013).

The structures appear in SMILES notation.

Test [1] has as its target T1, Recombinant human IKKβ (IKK2) (Homo sapiens, UniProt O14920).
T1 construct: Recombinant human IKKβ (residues 5-756); GST (C); made in house
T1 sequence (O14920 5-756): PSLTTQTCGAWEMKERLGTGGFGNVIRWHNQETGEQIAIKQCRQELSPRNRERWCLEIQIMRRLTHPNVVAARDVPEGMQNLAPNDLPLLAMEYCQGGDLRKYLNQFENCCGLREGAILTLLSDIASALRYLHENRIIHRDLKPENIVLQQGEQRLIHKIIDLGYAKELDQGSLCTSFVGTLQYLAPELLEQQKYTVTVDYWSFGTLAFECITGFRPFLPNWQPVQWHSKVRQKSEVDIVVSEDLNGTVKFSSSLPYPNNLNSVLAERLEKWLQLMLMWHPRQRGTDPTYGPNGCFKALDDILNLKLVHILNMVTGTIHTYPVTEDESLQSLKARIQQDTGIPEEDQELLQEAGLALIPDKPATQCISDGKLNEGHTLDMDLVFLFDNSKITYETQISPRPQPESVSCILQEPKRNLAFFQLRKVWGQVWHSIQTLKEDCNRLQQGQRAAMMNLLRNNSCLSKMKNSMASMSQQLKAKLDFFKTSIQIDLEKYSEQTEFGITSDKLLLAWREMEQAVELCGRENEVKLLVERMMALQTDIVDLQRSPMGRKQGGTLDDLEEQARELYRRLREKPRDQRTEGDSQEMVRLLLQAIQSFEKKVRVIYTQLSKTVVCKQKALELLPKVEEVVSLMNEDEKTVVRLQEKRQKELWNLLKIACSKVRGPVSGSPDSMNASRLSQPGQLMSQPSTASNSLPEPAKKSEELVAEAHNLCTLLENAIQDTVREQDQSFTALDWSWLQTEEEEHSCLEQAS
The test is described as follows: IKK2 assay (TR-FRET). Format: biochemical. Conditions: read-out: pIC50 potency against IKK2 (converted). The procedure:
Recombinant human IKKβ (residues 5-756) was expressed in baculovirus as a C-terminal GST-tagged fusion protein, and its activity was assessed using a time-resolved fluorescence resonance energy transfer (TR-FRET) assay. Briefly, IKKβ (0.5-4 nM final concentration) diluted in assay buffer (50 mM HEPES, 10 mM MgCl2, 1 mM CHAPS pH 7.4 with 1 mM DTT and 0.01% w/v BSA) was added to wells containing various concentrations of compound or DMSO vehicle (1.7% v/v final). The reaction was initiated by the addition of GST-IkappaBalpha substrate (25 nM final)/ATP (1 μM final), in a total volume of 6 μl. The reaction was incubated for 15 mins at room temperature, then terminated by the addition of 3 μl of 50 mM EDTA in buffer (100 mM HEPES pH 7.4, 150 mM NaCl and 0.1% w/v BSA) containing antiphosphoserine-IkappaBalpha-32/36 monoclonal antibody clone 12C2 (Cell Signalling Technology, Beverly Mass., USA) labelled with W-1024 europium chelate (Wallac O Y, Turku, Finland), and an APC-labelled anti-GST antibody (Prozyme, San Leandro, Calif., USA). The reaction was further incubated for 60 mins at room temperature and the degree of phosphorylation of GST-IkappaBalpha measured using a Rubystar plate reader (BMG Instruments, Aylesbury, UK) as a ratio of specific 665 nm energy transfer signal to reference europium 620 nm signal.
In general terms: In TR-FRET formats the signal depends on donor and acceptor labels being close together.

A further test has as its system LPS induced neutrophilia. Kind of test: Inhaled LPS induced neutrophilia in the male CD rat. The test is classed as in vivo. Conditions: dose of 300 ug/kg i.t. The procedure:
Male CD rats (150-250 g) were anaesthetised with isoflurane (5%, 2 L/min O2, 1 L/min […]) and positioned on their back on a dosing table at a 35 degree angle, with a metal rod placed under their incisors to keep them in place. A light was angled against the outside of the throat to highlight the trachea. The mouth was opened to visualise the upper opening of the airway and a portex cannula was introduced into the trachea via a blunt dosing needle. 200 ul of compound formulation was then injected into the airways. After dosing, animals were placed in a supine position during recovery from anaesthesia.
Approximately thirty minutes following dosing of compound or vehicle, the rats were placed into a cloud chamber and exposed to an aerosol of lipopolysaccharide, generated from a 150 ug/ml solution for 15 min.
Four hours following LPS challenge the animals were culled with an overdose of sodium pentobarbitone given intraperitoneally. The trachea was exposed and a small incision made, into which a tube was inserted towards the lungs. The lungs were then washed with 3 times with 5 mls heparinised (10 U/ml) PBS.
The bronchoalveolar lavage fluid (BALF) samples were centrifuged at 1300 rpm for 7 minutes. […] The total cells were also counted from the resuspension using a Sysmex counter. From these two counts, the total numbers of neutrophils in the BALF were determined.

Regarding `COCCS(=O)(=O)N1CCC(c2c[nH]c3c(C(N)=O)cc(-c4ccc5c(c4)CN(C(C)C)C5)cc23)CC1` [Compound of formula (I), 5-[2-(1-methylethyl)-2,3-dihydro-1H-isoindol-5-yl]-3-(1-{[2-(methyloxy)ethyl]sulfonyl}-4-piperidinyl)-1H-indole-7-carboxamide], the IC50 in test [1] is below 100 nM. Moreover, in the test with LPS induced neutrophilia, the “inhibition of LPS induced neutrophilia” value is “greater than 75%”.
